Experimental data reported in US4216221A, “1,3-Disubstituted (2-thio)ureas” (U C B, Societe Anonyme, priority 1977, dated 1980).
Read-outs that look alike come from different tables or passages of the source.

Assays:
[1] = Protection against aggressions of the hypoxic type (mortality induced by oxydipentonium chloride); type: in vivo, mice; conditions: Mus musculus, ip, 1 h, mice, intraperitoneal, one hour before the curarizer, read-out: Proportion of survivors, Animals treated; for responders at 100 µM, 100 µmol/kg: 0.1 mM/kg, control animals 3/20 (1), 1/10 (2, 18, 26), 0/10 (14, 32); for responders at 100 µM, 100 µmol/kg / responders at 320 µM, 320 µmol/kg: 2/10 (28); for responders at 320 µM, 320 µmol/kg: 0.32 mM/kg, control animals 1/10 (18), 0/10 (32, piracetam)
Procedure: Protection against aggressions of the hypoxic type was shown by a reduction of mortality induced by a curarizer, the action time of which is short, namely oxydipentonium chloride (Brevatonal). At the doses used, this curarizer brings about respiratory depression which, in turn, gives rise to a hypoxi-hypercapnic syndrome.
A compound capable of protecting the brain during this short period of hypoxia ensures survival. The compounds are administered to groups of 10 mice one hour before the injection of the curarizer. At the same time, a control group of 10 mice received physiological salt solution before the curarizer. This test has also been developed in our laboratories (see S. LEVIS et al., Arch.Int.Pharmacodyn.Therap.93, (1953,no. 1), 46-54).

[2] = Toxicity by intraperitoneal administration (Irwin's test); type: in vivo; conditions: for Dose mg/kg (dose which brings about the death of one animal out of eight in Irwin's test): mouse
Text: The compounds tested have a remarkably low toxicity.
*Dose which brings about the death of one animal out of eight in Irwin's
test (S. IRWIN, Gordon Research Conference on Medicinal Chemistry, Colby
Junior College, New London, 1959).

[3] = active avoidance test (memory retention; paw withdrawal reaction threshold); type: in vivo, rat; conditions: sc, rat, subcutaneous, tested 24 hours later
Text: The pressure at which the withdrawal reaction takes place is called the reaction threshold. This threshold is expressed by the figure read on a scale graduated in cm of the apparatus used (Analgesy-meter Ugo Basile, Milan) and thus corresponds to the minimum pressure which brings about withdrawal when applied to the animal's paw.

[4] = read-out: Active dose mM/kg (minimum dose lowering the stimulus below 11 graduations; mM = millimole)
[5] = read-out: Active dose mg/kg (minimum dose lowering the stimulus below 11 graduations)

Structure (SMILES) | responders at 100 µM, 100 µmol/kg [1] [%] | Dose mM/kg - mouse (dose which brings about the death of one animal out of eight in Irwin's test) [2] [mM/kg] | Dose mg/kg (dose which brings about the death of one animal out of eight in Irwin's test) [2] [mg/kg] | minimal effective dose [3, 4] [µmol/kg] | minimal effective dose [3, 5] [mg/kg] | responders at 32 µM, 32 µmol/kg ([1]; 0.032 mM/kg, control animals 3/20 (compound 1), 1/10 (compound 11)) [%] | responders at 320 µM, 320 µmol/kg [1] [%]
O=C(NCCCN1CCCC1=O)NCN1CCCC1=O [Compound No. 2, 1-[(2-oxo-pyrrolidino)methyl]-3-[3-(2-oxo-pyrrolidino)propyl]-urea] | 60 | > 3 | > 846 | – | – | – | –
O=C(NCN1CCCCC1=O)NCN1CCCCC1=O [Compound No. 3, 1,3-bis[(2-oxo-piperidino)methyl]-urea] | – | – | – | 0.2 | 0.056 | – | –
O=C(NCN1CCCCCCC1=O)NCN1CCCCCCC1=O [Compound No. 5, 1,3bis[(hexahydro-2-oxo-1(2H)-azocinyl)methyl]-urea] | – | 3 | 1004 | 1 | 0.338 | – | –
O=C(NCN1CCCCCCCC1=O)NCN1CCCCCCCC1=O [Compound No. 6, 1,3-bis[(octahydro-2-oxo-1H-azonin-1-yl)methyl]-urea] | – | > 3 | 1099.5 | 5 | 1.83 | – | –
O=C(NCN1C(=O)CCC1c1ccccc1)NCN1C(=O)CCC1c1ccccc1 (centres unmarked) [Compound No. 9, 1,3-bis[(2-oxo-5-phenyl-pyrrolidino)methyl]-urea] | – | 1 | 406 | – | – | – | –
CCC(NC(=O)NC(CC)N1CCCC1=O)N1CCCC1=O (centres unmarked) [Compound No. 10, 1,3-bis[1-(2-oxo-pyrrolidino)propyl]-urea] | – | > 3 | > 930 | – | – | – | –
CC(NC(=O)NC(C)N1CCCC1=O)N1CCCC1=O (centres unmarked) [Compound No. 11, 1,3-bis[1-(2-oxo-pyrrolidino)ethyl]-urea] | – | > 3 | > 846 | 0.005 | 0.0014 | 70 | –
O=C(NCN1CCCCCCCC1=O)NCN1CCCC1=O [Compound No. 29, 1-[(octahydro-2-oxo-1H-azonin-1-yl)methyl]-3-[(2-oxo-pyrrolidino)methyl]-urea] | – | 2 | 620 | – | – | – | –
O=C(NCN1CC(c2ccccc2)CC1=O)NCN1CC(c2ccccc2)CC1=O (centres unmarked) [compound 12, 1,3-bis[(2-oxo-4-phenyl-pyrrolidino)methyl]-urea] | – | > 3 | 1215 | – | – | – | –
CCC1(c2ccccc2)CCN(CNC(=O)NCN2CCC(CC)(c3ccccc3)C2=O)C1=O (centres unmarked) [compound 13, 1,3-bis[(3-ethyl-2-oxo-3-phenyl-pyrrolidino)methyl]-urea] | – | > 3 | 1387.5 | – | – | – | –
C=CCC1(c2ccccc2)CCN(CNC(=O)NCN2CCC(CC=C)(c3ccccc3)C2=O)C1=O (centres unmarked) [compound 15, 1,3-bis[(3-allyl-2-oxo-3-phenyl-pyrrolidino)methyl]-urea] | – | > 3 | 1459.5 | 1 | 0.486 | – | –
O=C(NCN1CC(c2ccc(Cl)cc2)CCC1=O)NCN1CC(c2ccc(Cl)cc2)CCC1=O (centres unmarked) [compound 16, 1,3-bis[(5-p-chlorophenyl-2-oxo-piperidino)methyl]-urea] | – | > 3 | 1510.2 | – | – | – | –
CC1CC2(CCCCC2)C(=O)N1CNC(=O)NCN1C(=O)C2(CCCCC2)CC1C (centres unmarked) [compound 17, 1,3-bis[(3-methyl-1-oxo-2-azaspiro[4.5]dec-2-yl)methyl]-urea] | – | 3 | 1255.8 | – | – | – | –
CC1CC(C)(C)N(CNC(=O)NCN2C(=O)C(C)CC2(C)C)C1=O (centres unmarked) [compound 18, 1,3-bis[(3,5,5-trimethyl-2-oxo-pyrrolidino)methyl]-urea] | 20 | 2 | 676.8 | – | – | – | 60
O=C(NC(c1ccccc1)N1CCCC1=O)NC(c1ccccc1)N1CCCC1=O (stereo not drawn) [compound 19, 1,3-bis[alpha-(2-oxo-pyrrolidino)-benzyl]-urea] | – | > 3 | > 1219 | – | – | – | –
CC(CNC(=O)NCC(C)N1CCCC1=O)N1CCCC1=O (centres unmarked) [compound 21, 1,3-bis[2-(2-oxo-pyrrolidino)propyl]-urea] | – | > 3 | > 930 | 0.01 | 0.0031 | – | –
O=C1CCCN1CNC(=S)NCN1CCCC1=O [compound 25, 1,3-bis[(2-oxo-pyrrolidino)methyl]-2-thiourea] | – | > 3 | > 804 | 1 | 0.268 | – | –
CCCCC1CCN(CNC(=S)NCN2CCC(CCCC)C2=O)C1=O (centres unmarked) [compound 26, 1,3-bis[(3-n-butyl-2-oxo-pyrrolidino)methyl]-2-thiourea] | 70 | > 2 | > 765.2 | – | – | – | –
CCCCC1CCN(CNC(=S)NCN2CCC(CCCC)C2=O)C1=O (centres unmarked) [compound 27, 1,3-bis[(3-n-butyl-2-oxo-pyrrolidino)methyl]-2-thiourea] | – | – | – | 0.01 | 0.0038 | – | –
O=C1CCCCCN1CNC(=S)NCN1CCCC1=O [compound 28, 1-[(hexahydro-2-oxo-1H-azepin-1-yl)methyl]-3-[(2-oxo-pyrrolidino)methyl]-2-thiourea] | 20 | 3 | 894 | – | – | – | 70
CCCCC1CCN(CNC(=O)NCN2CCC(CCCC)C2=O)C1=O (centres unmarked) [compound 30, 1,3-bis[(3-n-butyl-2-oxo-pyrrolidino)methyl]-urea] | – | > 3 | > 10009.5 | – | – | – | –
CC1CC2(CCCCC2)C(=O)N1CNC(=O)NCN1CCCC1=O (centres unmarked) [compound 31, 1-[(3-methyl-1-oxo-azaspiro[4.5]dec-2-yl)methyl]-3-[(2-oxo-pyrrolidino)-methyl]-urea] | – | 2 | 672.8 | – | – | – | –
O=C(NCN1CCCCCC1=O)NCN1CCCC1=O [compound 32, 1-[(hexahydro-2-oxo-1H-azepin-1-yl)methyl]-3-[(2-oxo-pyrrolidino)methyl]-urea] | 30 | > 3 | > 846 | – | – | – | 60
O=C(NCN1CCCCCCC1=O)NCN1CCCC1=O [compound 33, 1-[(hexahydro-2-oxo-1(2H)-azocinyl)methyl]-3-[(2-oxo-pyrrolidino)methyl]-urea] | – | > 3 | > 888 | 5 | 1.48 | – | –
CC1(C)CCC(=O)N1CNC(=O)NCN1C(=O)CCC1(C)C [compound 35, 1,3bis[(5,5-dimethyl-2-oxo-pyrrolidine)methyl]-urea] | – | > 3 | > 930 | 0.02 | 0.0062 | – | –
O=C1CCCCCN1CNC(=S)NCN1CCCCCC1=O [compound 36, 1,3-bis[(hexahydro-2-oxo-1H-azepin-1-yl)methyl]-2-thiourea] | – | – | – | 0.2 | 0.065 | – | –
